Our source for the IC50 values is patent US12649744B2, “N-(pyridin-2-yl)-6,7,8,9-tetrahydro-5h-5,8-epiminocyclohepta[c]pyridine-10-carboxamide derivatives and similar compounds as GPR65 modulators for the treatment of cancer” (PATHIOS THERAPEUTICS LIMITED, priority 2020, dated 2026).

The target in the assay is human recombinant GPR65 (Homo sapiens, UniProt Q8IYL9). The assay can be described thus: Human GPR65 cAMP HTRF antagonist assay. In kind it is cell-based. To be noted: 1321N1-hrGPR65 cells, assay pH of 7.2, cAMP HTRF; read-out: hGPR65 IC50. The text has this: The “Human GPR65 cyclic adenosine monophosphate (cAMP) Homogeneous Time Resolved Fluorescence (HTRF) antagonist assay”, or simply “cAMP assay”, as described below, can be used to measure the potency of GPR65 modulators, which is expressed as the concentration of compound required to reduce the increase in cAMP concentration upon GPR65 activation by 50% (i.e. an IC50).
human recombinant GPR65, sequence (Q8IYL9 whole entry): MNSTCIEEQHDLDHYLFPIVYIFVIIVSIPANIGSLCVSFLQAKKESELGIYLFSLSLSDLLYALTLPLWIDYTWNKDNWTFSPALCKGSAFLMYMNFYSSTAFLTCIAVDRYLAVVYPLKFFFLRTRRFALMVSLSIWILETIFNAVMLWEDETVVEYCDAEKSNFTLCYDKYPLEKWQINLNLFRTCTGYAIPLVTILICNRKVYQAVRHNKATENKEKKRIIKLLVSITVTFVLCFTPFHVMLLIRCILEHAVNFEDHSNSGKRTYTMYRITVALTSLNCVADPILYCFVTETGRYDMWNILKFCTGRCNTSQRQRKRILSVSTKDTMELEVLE
Human GPR65 Cyclic Adenosine Monophosphate (cAMP) Homogeneous Time Resolved Fluorescence (HTRF) Antagonist Assay Procedure
IC50 data was obtained by the following procedure:
1321N1 human astrocytoma cells stably expressing human recombinant GPR65 (1321N1-hrGPR65 cells, EuroscreenFast) were cultured according to the vendor's instructions.
Compounds were tested for their ability to antagonise GPR65, through measuring the concentration of cytoplasmic cAMP following treatment of the cells at a pH of 7.2 to activate GPR65 signalling and addition of the compound to be tested. The extent to which the expected rise in cAMP concentration upon GPR65 activation was suppressed by the added compound is indicative of its potency. The assay was carried out according to EuroscreenFast assay methodology as follows.
On the day of the assay, test compounds were added to 384-well, low volume, white microtiter plates by acoustic dispensing. KRH buffer (5 mM KCl, 1.25 mM MgSO4, 124 mM NaCl, 25 mM HEPES, 13.3 mM Glucose, 1.25 mM KH2PO4 and 1.45 mM CaCl2) was adjusted to pH 6.5, pH 7.6 and pH 8.4 by adding NaOH. 1321N1-hGPR65 cells were rapidly thawed and diluted in KRH, pH 7.6 prior to centrifugation at 300×g for 5 min and resuspension in assay buffer (KRH, pH 7.6, supplemented with 1 mM 3-isobutyl-1-methylxanthine (IBMX) and 200 μM ethylenediaminetetraacetic acid (EDTA)). Cells were added to assay plates at a density of 2,000 cells per well in a volume of 5 μl. Assay plates were briefly centrifuged at 100×g and then incubated at room temperature for 30 min. Cells were stimulated by the addition of 5 μL KRH, pH 6.5, to achieve an assay pH of 7.2, while control wells received 5 μl KRH, pH 8.4 to achieve an assay pH of 7.9. Assay plates were briefly centrifuged at 100×g and then incubated at room temperature for 30 min.
Accumulation of cAMP was detected by cAMP HTRF kit (Cisbio). d2-labeled cAMP and cryptate-labeled anti-cAMP antibody in Lysis and Detection Buffer (Cisbio) were added to assay plates, and the plates were incubated at room temperature for 1 h. HTRF measurements were performed using a Pherastar FSX instrument. Acceptor and donor emission signals were measured at 665 nm and 620 nm, respectively, and HTRF ratios were calculated as signal665 nm/signal620nm×10^4. Data were normalised to high and low control values and fitted with 4-parameter logistic regression to determine hGPR65 IC50 values for the test compounds, which are shown in Table 1.
For orientation: TR-FRET usually uses a lanthanide donor and a delayed reading to cut background.
One may read the IC50 as the concentration at which inhibition is half-maximal. Take `O=C(Nc1ccc(OC(F)F)cn1)N1[C@H]2CC[C@@H]1c1ccnc(F)c1C2` [Compound 39, (5R,8S)-N-(5-(Difluoromethoxy)pyridin-2-yl)-1-fluoro-6,7,8,9-tetrahydro-5H-5,8-epiminocyclohepta[c]pyridine-10-carboxamide]: the half-inhibitory concentration (IC50) lay in the range of 500 to 5000 nM.
`O=C(Nc1ccc(OC(F)(F)F)cn1)N1[C@H]2CC[C@@H]1c1ccnc(F)c1C2` [Compound 40, (5R,8S)-1-Fluoro-N-(5-(trifluoromethoxy)pyridin-2-yl)-6,7,8,9-tetrahydro-5H-5,8-epiminocyclohepta[c]pyridine-10-carboxamide]: the IC50 was under 500 nM.
`N#Cc1ccc(NC(=O)N2[C@H]3CC[C@@H]2c2ccnc(F)c2C3)nc1` [Compound 41, (5R,8S)-N-(5-Cyanopyridin-2-yl)-1-fluoro-6,7,8,9-tetrahydro-5H-5,8-epiminocyclohepta[c]pyridine-10-carboxamide]: the IC50 lay within 500 to 5000 nM.
In the case of `O=C(Nc1nc(-c2ccccc2)no1)N1[C@H]2CC[C@@H]1c1ccnc(F)c1C2` [Compound 42, (5R,8S)-1-Fluoro-N-(3-phenyl-1,2,4-oxadiazol-5-yl)-6,7,8,9-tetrahydro-5H-5,8-epiminocyclohepta[c]pyridine-10-carboxamide] it was 500 to 5000 nM; in that of `Cc1nnc(NC(=O)N2[C@H]3CC[C@@H]2c2ccnc(F)c2C3)s1` [Compound 43, (5R,8S)-1-Fluoro-N-(5-methyl-1,3,4-thiadiazol-2-yl)-6,7,8,9-tetrahydro-5H-5,8-epiminocyclohepta[c]pyridine-10-carboxamide], over 5000 nM; in that of `O=C(Nc1ccc2nc(C(F)(F)F)ccc2c1)N1[C@H]2CC[C@@H]1c1ccnc(F)c1C2` [Compound 44, (5R,8S)-1-Fluoro-N-(2-(trifluoromethyl)quinolin-6-yl)-6,7,8,9-tetrahydro-5H-5,8-epiminocyclohepta[c]pyridine-10-carboxamide], under 500 nM.
In the case of `O=C(Nc1nnc(-c2ccccc2)o1)N1[C@H]2CC[C@@H]1c1ccnc(F)c1C2` [Compound 45, (5R,8S)-1-Fluoro-N-(5-phenyl-1,3,4-oxadiazol-2-yl)-6,7,8,9-tetrahydro-5H-5,8-epiminocyclohepta[c]pyridine-10-carboxamide], the concentration for half-maximal inhibition (IC50) is 500 to 5000 nM.
For the compound `N#Cc1cnc(NC(=O)N2[C@H]3CC[C@@H]2c2ccnc(F)c2C3)cc1Cl` [Compound 46, (5R,8S)-N-(4-Chloro-5-cyanopyridin-2-yl)-1-fluoro-6,7,8,9-tetrahydro-5H-5,8-epiminocyclohepta[c]pyridine-10-carboxamide], the 50% inhibitory concentration (IC50) is under 500 nM.
In the case of `N#Cc1ccc(NC(=O)N2[C@H]3CC[C@@H]2c2ccnc(F)c2C3)nc1Cl` [Compound 47, (5R,8S)-N-(6-Chloro-5-cyanopyridin-2-yl)-1-fluoro-6,7,8,9-tetrahydro-5H-5,8-epiminocyclohepta[c]pyridine-10-carboxamide], the half-inhibitory concentration (IC50) lay within 500 to 5000 nM.
In the case of `Cn1nc(NC(=O)N2[C@H]3CC[C@@H]2c2ccnc(F)c2C3)cc1C(F)(F)F` [Compound 48, (5R,8S)-1-fluoro-N-(1-methyl-5-(trifluoromethyl)-1H-pyrazol-3-yl)-6,7,8,9-tetrahydro-5H-5,8-epiminocyclohepta[c]pyridine-10-carboxamide] it was over 5000 nM; in that of `O=C(Nc1cc(C(F)(F)F)on1)N1[C@H]2CC[C@@H]1c1c[nH]c(=O)cc1C2` [Compound 49, (6S,9R)-3-oxo-N-(5-(trifluoromethyl)isoxazol-3-yl)-3,5,6,7,8,9-hexahydro-2H-6,9-epiminocyclohepta[c]pyridine-10-carboxamide], under 500 nM.
For `O=C(Nc1cc(C(F)(F)F)no1)N1[C@H]2CC[C@@H]1c1ccnc(F)c1C2` [Compound 50, (5R,8S)-1-fluoro-N-(3-(trifluoromethyl)isoxazol-5-yl)-6,7,8,9-tetrahydro-5H-5,8-epiminocyclohepta[c]pyridine-10-carboxamide], the concentration for half-maximal inhibition (IC50) is under 500 nM.
In the case of `COC(=O)c1cc(NC(=O)N2[C@H]3CC[C@@H]2c2ccnc(F)c2C3)no1` [Compound 51, methyl-3-((5R,8S)-1-fluoro-6,7,8,9-tetrahydro-5H-5,8-epiminocyclohepta[c]pyridine-10-carboxamido)isoxazole-5-carboxylate] it was 500 to 5000 nM; in that of `N#Cc1cc(NC(=O)N2[C@H]3CC[C@@H]2c2ccnc(F)c2C3)no1` [Compound 52, (5R,8S)-N-(5-cyanoisoxazol-3-yl)-1-fluoro-6,7,8,9-tetrahydro-5H-5,8-epiminocyclohepta[c]pyridine-10-carboxamide], under 500 nM.
